Measurements from US6838592B1, “Methods for the identification of compounds for the treatment of alzheimer's disease” (Nathan S. Kline Institute for Psychiatric Research, priority 1999, dated 2005).
Entries after “also recorded” stand apart in the source; their conditions may differ. Non-standard residues stand in square brackets, D forms with d. Residues, ends and D or L forms follow the SMILES beside them. *: point of attachment. Sta = CC(C)C[C@H](N)[C@@H](O)CC(=O)O; Isovaleryl = CC(C)CC(=O)*

Legend:
lipofuscin = assay: Lipofuscin autofluorescence in fixed brain tissue after intraventricular leupeptin infusion; format: in vivo, mice; details: 5 mg/mL leupeptin, four weeks, vs vehicle (20 mM HEPES)
tau = assay: Western blot analysis of tau in brain of leupeptin-infused mice; format: in vivo
Method: (§1) Several studies have recently raised the possibility that abnormal forms of tau is metabolized in lysosomes. […] There are numerous assays for tau known in the art. For example, the processing of tau by immunocytochemistry and Western blot analysis is performed using an antibody that recognizes both phosphorylated and non-phosphorylated forms (Adamec et al., Brain Res. 757:93-101, 1997). Abnormal tau conformation and hyperphosphorylated tau is examined using suitable monoclonal antibodies. (e.g., MC1 (Jicha et al., J. Neurosci. Res. 48:128-132) and AT8 (Innogenetics, Gent, Belgium)). EM analysis can be performed to characterize cytoskeletal changes in neurons (Nixon, Bioessays 20:798-807, 1998). Alternatively, the magnitude of neurodegeneration in the mice can be determined by Nissl stain.

cortical mantle = assay: Nissl staining and cortical mantle thickness in PS1M146L/APPswe transgenic and non-transgenic mice infused with leupeptin; format: in vivo
Method: as §1
As a second example of the usefulness of inducing lysosomal system dysfunction by protease inhibitor infusion, we treated PS1M146L/APPswe transgenic mice, an established model of AD-like pathology (Duff et al., Nature 383:710-713, 1996). Infusion pumps containing 5 mg/mL leupeptin were implanted into PS1M146L/APPswe transgenic mice at 1 year of age. Animals were sacrificed 4 weeks later.
We confirmed this observation by measuring the thickness of the cortical mantle in these mice (FIG. 15). […] One current limitation of the existing mouse models of AD is their failure to show substantial neuronal atrophy and/or neuronal cell loss, key features of the disease in humans.

Aβ = assay: Total Aβ by ELISA after formic acid extraction in PS1M146L/APPswe transgenic mice infused with protease inhibitor; format: in vivo; details: infusion from 8 to 12 weeks of age
Method: We also performed protease inhibitor infusion experiments in PS1M146L/APPswe transgenic mice. Infusion pumps containing either 2 mg/mL pepstatin or 10 mg/mL leupeptin were implanted into PS1M146L/APPswe transgenic mice at 8 weeks of age. Animals were sacrificed at 12 weeks of age, and total Aβ levels were determined by ELISA following formic acid extraction (FIG. 10A). […] Leupeptin treatment, on the other hand, increased total Aβ by 1.8 times when compared to untreated mice. We have additionally measured the activity of Cat D in the brains of untreated, pepstatin-treated, or leupeptin-treated mice (FIG. 10B).
The Aβ sandwich ELISA is generally known to those skilled in the art, with both Aβ ELISA kits (Biosource International, Camavillo, Calif.) and appropriate antibodies (e.g., 4G8, GE10; Seneteck, PLC, Napa, Calif.) available commercially. For the Aβ sandwich ELISA, Nunc-Immuno Plates (Nunc A/S Roskilde, Denmark) were coated overnight at […] using antibodies specific for Aβ40 or Aβ42 in 100 mM bicarbonate buffer, pH 9.6. […] Aβ was detected by incubating for 4 hours at room temperature with an HPR-conjugated anti-Aβ antibody in 20 mM Na phosphate, 2 mM EDTA, 400 mM NaCl, 1.0% BSA. ELISA plates were developed using a color reaction (ABTS Peroxidase Substrate System, Kirkegaard & Perry, Gaithersburg, Md.) and the OD450 read.

Cat D = molecular target: T1, Cat D (Mus musculus, UniProt P18242); assay: Cat D activity in brains of PS1M146L/APPswe transgenic mice infused with protease inhibitor; format: in vivo; details: 2 mg/mL pepstatin or 10 mg/mL leupeptin, vs untreated
T1 construct: from tissue; host or cells: mouse brain (sections and hemi-brain homogenates)
Method: To administer the candidate compounds in the presence or absence of inhibitor(s), eight week old mice are anesthetized with pentobarbital (40-50 mg/kg i.p.) and placed in a stereotaxic apparatus with mouse adapter (David Kopf Instruments, Tujunga, Calif.). After sacrifice, placement of the probe into the lateral ventricle is confirmed and one hemi-brain immersion-fixed and the other hemi-brain homogenized for protease assays. We determine the efficacy of the candidate compound by assaying the activity of proteases in brain homogenates (e.g., Cat B, Cat L, Cat D, and trypsin (Brunk et al., Free Radic. Biol. Med. 19:813-822, 1995; Marotta and Nixon, J. Neurochem. 43:507-516, 1984; Koshikawa et al., Am. J. Pathol. 153:937-944, 1998); see, for example, Cat D shown in FIG. 11F). […] Lipofuscin granules are defined at the EM level as having a single layer of membrane and a bipartite structure consisting of electron lucent lipoid material and electron dense material (Cataldo and Nixon, Ann. N.Y. Acad. Sci. 679: 87-109, 1993).
We also performed protease inhibitor infusion experiments in PS1M146L/APPswe transgenic mice. […] Animals were sacrificed at 12 weeks of age, and total Aβ levels were determined by ELISA following formic acid extraction (FIG. 10A). […] We have additionally measured the activity of Cat D in the brains of untreated, pepstatin-treated, or leupeptin-treated mice (FIG. 10B).

[1] = system: lipofuscin-like material in neurons; details: chronic inhibition (7+days) by infusion; cited from earlier work

T1 sequence (P18242 65-410): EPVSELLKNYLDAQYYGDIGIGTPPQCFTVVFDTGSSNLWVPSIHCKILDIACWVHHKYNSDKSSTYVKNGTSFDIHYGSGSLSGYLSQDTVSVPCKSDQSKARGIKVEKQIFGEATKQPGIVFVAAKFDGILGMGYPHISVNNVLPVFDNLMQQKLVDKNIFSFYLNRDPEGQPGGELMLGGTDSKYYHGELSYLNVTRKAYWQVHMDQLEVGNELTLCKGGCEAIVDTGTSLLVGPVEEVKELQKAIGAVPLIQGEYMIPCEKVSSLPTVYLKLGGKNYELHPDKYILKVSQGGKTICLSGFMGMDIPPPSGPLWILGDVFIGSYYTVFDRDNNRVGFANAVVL

Compound: CC(=O)N[C@@H](CC(C)C)C(=O)N[C@@H](CC(C)C)C(=O)N[C@H](C=O)CCCNC(=N)N [leupeptin]
- lipofuscin autofluorescence (lipofuscin): increase in lipofuscin autofluorescence; also recorded: lipotuscin autofluorescence in sections of leupeptin-treated but not vehicle-treated brains
- lower molecular weight forms of tau (Mr~30-34 kDa) by Western blot (tau): increase in the lower molecular weight forms of tau
- reduction of thickness of the cortex (cortical mantle; PS1M146L/APPswe mouse, 5 mg/mL leupeptin, 4 weeks): over 20%
- Nissl staining of cortex (cortical mantle; PSM146L/APPswe mouse, 5 mg/mL leupeptin, 4 weeks, vs non-transgenic littermate also infused with leupeptin): substantial cortical neuronal hypotrophy, chromatolysis and possibly loss of neurons
- thickness of the cortical mantle (cortical mantle; non-transgenic mouse, leupeptin vs vehicle): small decrease
- total Aβ increase compared to untreated mice (Aβ; 10 mg/mL leupeptin): 1.8 times
- activity of Cat D in the brain (Cat D): increased Cat D activity
- accumulation of lipofuscin-like material in neurons [1]: results in accumulation of lipofuscin-like material in neurons

Compound: CCN(CC)CCCC(C)Nc1ccnc2cc(Cl)ccc12 (stereo not drawn) [chloroquine]
- accumulation of lipofuscin-like material in neurons [1]: results in accumulation of lipofuscin-like material in neurons

Compound: aprotinin
- accumulation of lipofuscin-like material in neurons [1]: does not

Compound: CC(C)CC(=O)N[C@H](C(=O)N[C@H](C(=O)N[C@@H](CC(C)C)[C@@H](O)CC(=O)N[C@@H](C)C(=O)N[C@@H](CC(C)C)[C@@H](O)CC(=O)O)C(C)C)C(C)C [pepstatin] (Isovaleryl-VV[Sta]A[Sta]-OH)
- total Aβ level relative to untreated mice (Aβ; 2 mg/mL pepstatin): reduced to half the level
- activity of Cat D in the brain (Cat D): reduced activity of Cat D
